Data as given in patent US9593110B2, “Neprilysin inhibitors” (Theravence Biopharma R&D IP, LLC, priority 2014, dated 2017).

Molecular target: human NEP (Homo sapiens (Human), UniProt P08473)
Assay: In vitro enzyme inhibition assay at human NEP
Conditions: recombinant human NEP, fluorogenic peptide substrate, 37° C.; for Ki: pKi

Sequence of human NEP (P08473 52-750): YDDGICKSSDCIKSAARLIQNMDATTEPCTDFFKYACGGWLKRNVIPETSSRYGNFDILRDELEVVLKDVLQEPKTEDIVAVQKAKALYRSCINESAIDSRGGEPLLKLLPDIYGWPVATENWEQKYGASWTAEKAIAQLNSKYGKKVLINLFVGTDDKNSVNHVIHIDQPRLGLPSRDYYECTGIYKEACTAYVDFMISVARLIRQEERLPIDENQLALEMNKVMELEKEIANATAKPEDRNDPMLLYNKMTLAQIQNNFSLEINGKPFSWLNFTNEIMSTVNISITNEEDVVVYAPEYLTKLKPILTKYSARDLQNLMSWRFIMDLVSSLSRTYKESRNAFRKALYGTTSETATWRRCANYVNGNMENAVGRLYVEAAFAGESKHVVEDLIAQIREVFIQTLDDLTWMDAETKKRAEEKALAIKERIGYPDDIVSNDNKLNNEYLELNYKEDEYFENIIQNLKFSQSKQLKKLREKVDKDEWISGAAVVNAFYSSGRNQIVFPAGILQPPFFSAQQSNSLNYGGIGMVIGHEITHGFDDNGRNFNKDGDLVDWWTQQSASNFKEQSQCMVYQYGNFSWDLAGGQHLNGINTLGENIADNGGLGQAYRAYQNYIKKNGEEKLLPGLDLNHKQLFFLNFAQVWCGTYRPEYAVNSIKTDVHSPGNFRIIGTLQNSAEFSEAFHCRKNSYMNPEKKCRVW

In the case of `CCOC[C@H](C[C@@H](Cc1ccc(-c2cc(Cl)ccc2F)cc1)NC(=O)c1coc(C2CC2)n1)C(=O)O` [Example 7-8, (2S,4S)-5-(5′-Chloro-2′-fluorobiphenyl-4-yl)-4-[(2-cyclopropyloxazole-4-carbonyl)amino]-2-ethoxymethylpentanoic acid], the Ki is reported as 1.26 to 3.16 nM.

In the case of `O=C(N[C@H](Cc1ccc(-c2cc(Cl)ccc2F)cc1)C[C@@H](Cn1ccnn1)C(=O)O)c1cnn[nH]1` [Example 61a, (2S,4S)-5-(5′-Chloro-2′-fluorobiphenyl-4-yl)-4-[(3H-[1,2,3]triazole-4-carbonyl)amino]-2-[1,2,3]triazol-1-ylmethylpentanoic Acid], the Ki is reported as ≤ 1 nM.

Work on `COC[C@H](C[C@@H](Cc1ccc(-c2cc(Cl)ccc2F)cc1)NC(=O)c1[nH]nc(C2CC2)c1F)C(=O)O` [Example 2-3, (2S,4S)-5-(5′-Chloro-2′-fluorobiphenyl-4-yl)-4-[(5-cyclopropyl-4-fluoro-2H-pyrazole-3-carbonyl)amino]-2-methoxymethylpentanoic acid] yielded a Ki of 1.26 to 3.16 nM.

With `CCOC[C@H](C[C@@H](Cc1ccc(-c2cc(Cl)ccc2F)cc1)NC(=O)c1ncccn1)C(=O)O` [Example 7-11, (2S,4S)-5-(5′-Chloro-2′-fluorobiphenyl-4-yl)-2-ethoxymethyl-4-[(pyrimidine-2-carbonyl)amino]pentanoic acid] the pKi was “≧9.0”.

For `O=C(N[C@H](Cc1ccc(-c2ccccc2)cc1)C[C@@H](COCCCO)C(=O)O)c1c[nH]nn1` [Example 12, (2S,4S)-5-Biphenyl-4-yl-2-(3-hydroxypropoxymethyl)-4-[(1H-[1,2,3]triazole-4-carbonyl)amino]pentanoic Acid], the Ki was 1.26 to 3.16 nM.

In the case of `CN(C)C(=O)c1cc(C(=O)N[C@H](Cc2ccc(-c3cc(Cl)ccc3F)cc2)C[C@@H](N)C(=O)O)[nH]n1` [Example 16-18, (2R,4R)-2-Amino-5-(5′-chloro-2′-fluorobiphenyl-4-yl)-4-[(5-dimethylcarbamoyl-2H-pyrazole-3-carbonyl)amino]pentanoic acid], the pKi is reported as “≧9.0”.

With `COC[C@H](C[C@@H](Cc1ccc(-c2cc(Cl)ccc2F)cc1)NC(=O)c1cc(C(C)=O)n[nH]1)C(=O)O` [Example 2-4, (2S,4S)-4-[(5-Acetyl-2H-pyrazole-3-carbonyl)-amino]-5-(5′-chloro-2′-fluorobiphenyl-4-yl)-2-methoxymethylpentanoic acid] the pKi was “≧9.0”.

For `O=C(N[C@H](Cc1ccc(-c2cc(Cl)ccc2F)cc1)C[C@@H](CN1CC[C@H]1CO)C(=O)O)c1cnn[nH]1` [Example 95b, (2S,4S)-5-(5′-Chloro-2′-fluorobiphenyl-4-yl)-2-((S)-2-hydroxymethyl-azetidin-1-ylmethyl)-4-[(3H-[1,2,3]triazole-4-carbonyl)amino]pentanoic Acid], the Ki was ≤ 1 nM.

`CC(C)(N)[C@H](C[C@@H](Cc1ccc(-c2cc(Cl)ccc2F)cc1)NC(=O)c1cnn[nH]1)C(=O)O` [Example 104, (2S,4S)-2-(1-Amino-1-methylethyl)-5-(5′-chloro-2′-fluorobiphenyl-4-yl)-4-[(3H-[1,2,3]triazole-4-carbonyl)amino]pentanoic Acid] was tested, and the pKi was “≧9.0”.

In the case of `COC[C@H](C[C@@H](Cc1ccc(-c2cc(Cl)ccc2F)cc1)NC(=O)c1cc(O)no1)C(=O)O` [Example 2-5, (2S,4S)-5-(5′-Chloro-2′-fluorobiphenyl-4-yl)-4-[(3-hydroxyisoxazole-5-carbonyl)-amino]-2-methoxymethylpentanoic acid], the pKi is reported as “≧9.0”.

In the case of `COC[C@@H]1CCN1C[C@H](C[C@@H](Cc1ccc(-c2cc(Cl)ccc2F)cc1)NC(=O)c1c[nH]nn1)C(=O)O` [Example 103d, (2S,4S)-5-(5′-Chloro-2′-fluorobiphenyl-4-yl)-2-((S)-2-methoxymethylazetidin-1-ylmethyl)-4-[(3H-[1,2,3]triazole-4-carbonyl)amino]pentanoic Acid], the Ki is reported as ≤ 1 nM.

In the case of `NCCCCC(=O)N[C@H](C[C@@H](Cc1ccc(-c2cc(Cl)ccc2F)cc1)NC(=O)c1c[nH]nn1)C(=O)O` [Example 72, (2R,4R)-2-(5-Amino-pentanoylamino)-5-(5′-chloro-2′-fluorobiphenyl-4-yl)-4-[(1H-[1,2,3]triazole-4-carbonyl)amino]pentanoic Acid], the pKi is reported as “≧9.0”.

`CCOC[C@H](C[C@@H](Cc1ccc(-c2ccccc2)cc1)NC(=O)c1c[nH]nn1)C(=O)O` [Example 10, (2S,4S)-5-Biphenyl-4-yl-2-ethoxymethyl-4-[(1H-[1,2,3]triazole-4-carbonyl)amino]pentanoic Acid] was tested, and the pKi was “≧9.0”.

For `NC[C@H](C[C@@H](Cc1ccc(-c2cc(Cl)ccc2F)cc1)NC(=O)c1cnsc1)C(=O)O` [Example 21-7, (2S,4S)-2-Aminomethyl-5-(5′-chloro-2′-fluorobiphenyl-4-yl)-4-[(isothiazole-4-carbonyl)amino]pentanoic acid], the Ki was 1.26 to 3.16 nM.

Work on `O=C(N[C@H](Cc1ccc(-c2cc(Cl)ccc2F)cc1)CC(C(=O)O)c1ccccn1)c1cnn[nH]1` (stereo in doubt) [Example 76, (S)-5-(5′-Chloro-2′-fluorobiphenyl-4-yl)-2-pyridin-2-yl-4-[(3H-[1,2,3]triazole-4-carbonyl)amino]pentanoic Acid] yielded a Ki of 12.6 to 31.6 nM.

In the case of `CCOC[C@H](C[C@@H](Cc1ccc(-c2cc(Cl)ccc2F)cc1)NC(=O)c1cc(CC)no1)C(=O)O` [Example 7-5, (2S,4S)-5-(5′-Chloro-2′-fluorobiphenyl-4-yl)-2-ethoxymethyl-4-[(3-ethylisoxazole-5-carbonyl)amino]pentanoic acid], the pKi is reported as “≧9.0”.

With `COC(=O)N[C@H](C[C@@H](Cc1ccc(-c2ccccc2)cc1)NC(=O)c1c[nH]nn1)C(=O)O` [Example 31, (2R,4R)-5-Biphenyl-4-yl-2-methoxycarbonylamino-4-[(1H-[1,2,3]triazole-4-carbonyl)amino]pentanoic Acid] the Ki was 1.26 to 3.16 nM.

In the case of `O=C(N[C@H](Cc1ccc(-c2cc(Cl)ccc2F)cc1)CC(C(=O)O)C1CCNCC1)c1cnn[nH]1` (stereo in doubt) [Example 59, (S)-5-(5′-Chloro-2′-fluorobiphenyl-4-yl)-2-piperidin-4-yl-4-[(3H-[1,2,3]triazole-4-carbonyl)amino]pentanoic Acid], the Ki is reported as ≤ 1 nM.

For `CN(C)CCCC(=O)N[C@H](C[C@@H](Cc1ccc(-c2cc(Cl)ccc2F)cc1)NC(=O)c1c[nH]nn1)C(=O)O` [Example 73, (2R,4R)-5-(5′-Chloro-2′-fluorobiphenyl-4-yl)-2-(4-dimethylaminobutyrylamino)-4-[(1H-[1,2,3]triazole-4-carbonyl)amino]pentanoic Acid], the pKi was “≧9.0”.

Work on `N[C@@H](C[C@@H](Cc1ccc(-c2cc(Cl)ccc2F)cc1)NC(=O)c1nc2cc(Cl)ccn2n1)C(=O)O` [Example 16-26, (2S,4R)-2-Amino-5-(5′-chloro-2′-fluorobiphenyl-4-yl)-4-[(7-chloro-[1,2,4]triazolo[1,5-a]pyridine-2-carbonyl)amino]pentanoic acid] yielded a Ki of 1.26 to 3.16 nM.

In the case of `COC(=O)N[C@H](C[C@@H](Cc1ccc(-c2cc(Cl)ccc2F)cc1)NC(=O)c1coc(C2CC2)n1)C(=O)O` [Example 30-5, (2R,4R)-5-(5′-Chloro-2′-fluorobiphenyl-4-yl)-4-[(2-cyclopropyl-oxazole-4-carbonyl)amino]-2-methoxycarbonylaminopentanoic acid], the pKi is reported as “≧9.0”.

`O=C(N[C@H](Cc1ccc(-c2cc(Cl)ccc2F)cc1)CC(C(=O)O)c1ccsc1)c1cnn[nH]1` (stereo in doubt) [Example 79, (S)-5-(5′-Chloro-2′-fluorobiphenyl-4-yl)-2-thiophen-3-yl-4-[(3H-[1,2,3]triazole-4-carbonyl)amino]pentanoic Acid] gave a Ki of 1.26 to 3.16 nM.
